The test system of experiment [1] is Escherichia coli. The experiment is described as follows: Inhibition of ribosome function in a coupled transcription and translational assay using Escherichia coli S30 extracts. Format: functional, organism-based.
Experiment [2] concerns Escherichia coli. The experiment is described as follows: Binding affinity to 70S bacterial ribosome isolated from Escherichia coli. It counts as functional.

In the experiment on Escherichia coli [1], `CC[C@H]1OC(=O)[C@H](C)[C@@H](O[C@H]2C[C@@](C)(OC)[C@@H](OC(=O)NCCNC(=O)CCC3=CC4=Cc5c(C)cc(C)n5[B-](F)(F)[N+]4=C3)[C@H](C)O2)[C@H](C)[C@@H](O[C@@H]2O[C@H](C)C[C@H](N(C)C)[C@H]2O)[C@](C)(OC)C[C@@H](C)C(=O)[C@H](C)[C@@H](O)[C@]1(C)O` displayed an IC50 of 160 nM. This molecule also returned a Kd in the experiment on Escherichia coli [2] of less than 0.5 nM.

In turn, `CC[C@H]1OC(=O)[C@H](C)[C@@H](O[C@H]2C[C@@](C)(OC)[C@@H](OC(=O)NCCNC(=O)CCC3=CC4=Cc5c(C)cc(C)n5[B-](F)(F)[N+]4=C3)[C@H](C)O2)[C@H](C)[C@@H](O[C@@H]2O[C@H](C)C[C@H](N(C)C)[C@H]2O)[C@](C)(O)C[C@@H](C)[C@H](NC(=O)OCc2ccccc2)[C@H](C)[C@@H](O)[C@]1(C)O` showed a 50% inhibitory concentration (IC50) in the experiment with Escherichia coli [1] of 550 nM. Moreover, in the experiment with Escherichia coli [2], the Kd was 1.5 nM.

In the case of `CC[C@H]1OC(=O)[C@H](C)[C@@H](O[C@H]2C[C@@](C)(OC)[C@@H](O)[C@H](C)O2)[C@H](C)[C@@H](O[C@@H]2O[C@H](C)C[C@H](N(C)C)[C@H]2O)[C@](C)(O)C[C@@H](C)[C@H](NC(=O)CCC2=CC3=Cc4c(C)cc(C)n4[B-](F)(F)[N+]3=C2)[C@H](C)[C@@H](O)[C@]1(C)O`, the IC50 in the experiment on Escherichia coli [1] stood at 1500 nM. The affinity in the experiment on Escherichia coli [2], expressed as Kd, was 30 nM.

For the molecule `CC[C@H]1OC(=O)[C@H](C)[C@@H](O[C@H]2C[C@@](C)(OC)[C@@H](O)[C@H](C)O2)[C@H](C)[C@@H](O[C@@H]2O[C@H](C)C[C@H](N(C)C)[C@H]2O)[C@](C)(O)C[C@@H](C)C(=O)[C@H](C)[C@@H](O)[C@]1(C)O` [ERYTHROMYCIN], in the experiment with Escherichia coli [1], the IC50 stood at 80 nM.

As a reminder, the IC50 is the concentration at which inhibition is half-maximal. A high value points to a need for much substance. By Kd is commonly meant the equilibrium constant for the complex coming apart. A lower Kd goes with a tighter complex.

The values above are taken from ChEMBL document CHEMBL1149416, “Design, synthesis, and biological evaluation of BODIPY-erythromycin probes for bacterial ribosomes” (Bioorg Med Chem Lett, 2006).
